Entries after “also recorded” stand apart in the source; their conditions may differ. *1 amine or outer side, *2 acyl side, *3 side chain or, on linkers, in order; H or OH if unused. Where a SMILES comes first, the peptide text is derived from it. Where no end group is shown, it is not given here. Side-chain parts run from the residue outwards. [ ]: non-standard residue; d: D form. The star is where a group is joined. C18 diacid = O=C(O)CCCCCCCCCCCCCCCCC(=O)*; C16 diacid = O=C(O)CCCCCCCCCCCCCCC(=O)*; γGlu = O=C(O)[C@H](CCC(=O)[*:2])N[*:1]; Glutaryl = O=C(CCCC(=O)[*:2])[*:1]; Nle = CCCC[C@H](N)C(=O)O; AEEA = NCCOCCOCC(=O)O; Aib = CC(C)(N)C(=O)O
Tests used:
[1] = tested on: mice on a fat-diet, or lean mice; conditions: cited from earlier work; for absolute body weight or cumulative food intake: chronic administration, compared with vehicle control
[2] = tested on: high-fat mice; conditions: daily intraperitoneal injections, cited from earlier work; for glucose tolerance / glycaemic control: compared with high-fat controls
[3] = tested on: High fat diet (HFD) induced obese cynomolgus monkeys; experiment: cynomolgus monkey efficacy study, 42 days daily SC treatment; format: in vivo, cynomolgus monkeys (Macaca fascicularis)
Method: Cynomolgus monkeys (Macaca fascicularis) were fed a HFD consisting of 50 g of KBI proprietary standard monkey formula feed in the morning 9:00 to 10:00 AM, 150 g apple in the afternoon 14:00 to 15:00 PM, and 100 g of KBI proprietary HFD in the evening 16:00 to 17:00 PM. Water was provided ad libitum. […] Values represent means±SEM, n=9-10 per group.
High fat diet (HFD) induced obese cynomolgus monkeys (Macaca fascicularis, male, >7.5 kg, fasting glucose<90 mg/dL, fasting insulin<60 μU/mL, >8 years of age) were obtained from KBI's stock colony. Lighting in animal holding rooms was maintained on 12:12 hour light:dark cycle, and the ambient temperature and humidity range was set at 18-29 degrees C. and 30 to 90%, respectively. The monkeys were individually housed in cages arranged to allow visual and auditory contacts with conspecifics. The monkeys were provided with cage toys for environmental enrichment to ensure adequate welfare and psychological well-being.
8 days prior to the treatment phase, and KBI's proprietary HFD was provided adlibitum which is in contrast to the defined amount of 100 g that the monkeys were normally served. During the entire treatment phase (42 days) and washout period (14 days) monkeys were provided three meals per day consisting of 50 g of KBI proprietary standard monkey formula feed in the morning 9:00-10:00 AM, one regular apple (150 g) in the afternoon 14:00-15:00 PM, and ad libitum of KBI proprietary HFD in the evening 16:00-17:00 PM. Water was provided adlibitum.
The cynomolgus monkeys were acclimated/trained to experimental procedures for three weeks followed by one week with continued training and introduction of adlibitum HFD prior to start of treatment. The monkeys were randomly sorted into six separate dose groups with 10 animals each based on acclimation data sets.
Daily food intake measurements were recorded during the entire duration of the study from the acclimation period until the end of the washout period. After each feeding time, all of the remaining food was withdrawn and intake was determined by weighing the left-over food.
Body weights were measured every third to fourth day during the study period. The monkeys were non-sedated and were transferred into small transfer cages and transported to a weighing scale. The tare weights of the transfer cages were determined prior to weighing the monkeys inside the transfer cages. The monkeys were weighed twice inside the transfer cages and recordings were made to the nearest 0.1 kg.
Whole blood sample was collected from a peripheral vein after an overnight fast according to the specified time points and transferred directly into serum separation tubes (SST). Serum was separated by centrifugation at 2500×g for 10 min at 4° C. Insulin, CTX and PTH levels were analyzed using the Cobas e411 Immunology analyzer. Other parameters were analyzed using the Roche C311 or C501 biochemical analyzer.

[4] = target: DPP-IV enzyme (Homo sapiens, UniProt P27487); conditions: cited from earlier work
[5] = in vivo
Excerpt: During the treatment period all monkeys received daily SC injections after breakfast with the respective test substance for a total of 42 days. […] All treatment groups and the vehicle group received injection volumes based on individual body weights. After the 42 days of treatment, body weight, food intake, and blood/serum chemistries were monitored for an additional 14-day washout period. Blood collections and dosing occurred in conscious monkeys for the entire study.

Chain of DPP-IV enzyme (P27487 whole entry, species assumed): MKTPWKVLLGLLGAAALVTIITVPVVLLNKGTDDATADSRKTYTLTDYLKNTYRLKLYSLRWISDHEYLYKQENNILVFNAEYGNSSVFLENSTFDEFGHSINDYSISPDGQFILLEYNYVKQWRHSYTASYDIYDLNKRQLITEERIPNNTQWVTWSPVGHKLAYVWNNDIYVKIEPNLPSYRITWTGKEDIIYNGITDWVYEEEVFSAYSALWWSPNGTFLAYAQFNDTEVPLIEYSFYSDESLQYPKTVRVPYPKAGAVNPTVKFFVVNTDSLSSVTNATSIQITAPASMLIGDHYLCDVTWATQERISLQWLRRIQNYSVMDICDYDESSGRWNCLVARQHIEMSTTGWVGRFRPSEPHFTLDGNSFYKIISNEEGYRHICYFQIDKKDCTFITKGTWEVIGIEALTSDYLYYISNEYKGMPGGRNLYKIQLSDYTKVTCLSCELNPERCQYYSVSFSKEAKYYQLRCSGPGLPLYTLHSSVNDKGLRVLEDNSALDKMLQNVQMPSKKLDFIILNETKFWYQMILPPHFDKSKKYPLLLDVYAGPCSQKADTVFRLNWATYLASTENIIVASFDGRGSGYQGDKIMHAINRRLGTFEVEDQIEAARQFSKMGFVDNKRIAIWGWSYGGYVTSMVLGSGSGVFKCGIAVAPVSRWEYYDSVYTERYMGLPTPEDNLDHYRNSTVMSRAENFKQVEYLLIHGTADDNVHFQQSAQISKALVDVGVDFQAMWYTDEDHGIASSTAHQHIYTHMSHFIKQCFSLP

mouse GIP(3-30)NH2 (EGTFISDYSIAMDKIRQQDFVNWLLAQR-NH2; UniProt P48756 46-73, looked up, fragment) [GIPA-1, GIPR antagonist GIP peptide of West et al. 2021]
absolute body weight or cumulative food intake [1]: no effect

(d-Ala8)GLP-1
glucose tolerance [2]: significantly improved glucose tolerance
glycaemic control [2]: restored glycaemic control to normal levels
food intake and body weights [2]: not affected

EGTFISEYSIAibLEKIKQQEFVEWLLAQKPSSGAPPPS-C16-diacid/18K (GIP(3-30)+Cex(31-39) [D9E;A13Aib;M14L;D15E;H18K;D21E;N24E]) (EGTFISEYSI[Aib]LEKIK(C16 diacid)QQEFVEWLLAQKPSSGAPPPS; ends and bridges not checked) [Compound 1]
body weight during the study period (in words) ([3]; 42 days treatment, placebo gained 9%): maintained body weight; also recorded: no change in weight
fasting triglycerides (in words) ([3]; FIG. 1D): reduced fasting triglycerides
average HOMA-IR (Homeostatic Model Assessment for Insulin Resistance) ([3]; at day 43, FIG. 1C, placebo 25.1): 13.0
reduction in LDL-c (individual %-change from predose) ([3]; from predose): 26%

GLP-1: 31-amino acid peptide derived from the proglucagon gene, secreted by intestinal L-cells
half-life [4]: approximately 2 minutes

NaAc-K10[γEγE-C16]-Arg18-hGIP(5-42) [GIPA-2]
absolute body weight or cumulative food intake [1]: no effect
GIPR antagonist potency in mice (comparison) ([1]; in mice): more potent antagonist than GIPA-1
glucose stimulated insulin secretion ([1]; in mice): inhibited glucose stimulated insulin secretion

CCCC[C@H](NC(=O)C(C)(C)NC(=O)[C@@H](NC(=O)[C@H](CO)NC(=O)[C@H](Cc1ccc(O)cc1)NC(=O)[C@H](CCC(=O)O)NC(=O)[C@H](CO)NC(=O)[C@@H](NC(=O)[C@H](Cc1ccccc1)NC(=O)[C@@H](NC(=O)CNC(=O)CCCC(=O)O)[C@@H](C)O)[C@@H](C)CC)[C@@H](C)CC)C(=O)N[C@@H](CCC(=O)O)C(=O)N[C@@H](CCCCN)C(=O)N[C@H](C(=O)N[C@@H](CCCCNC(=O)COCCOCCNC(=O)COCCOCCNC(=O)CC[C@H](NC(=O)CCCCCCCCCCCCCCCCC(=O)O)C(=O)O)C(=O)N[C@@H](CCC(N)=O)C(=O)N[C@@H](CCC(N)=O)C(=O)N[C@@H](CCC(=O)O)C(=O)N[C@@H](Cc1ccccc1)C(=O)N[C@H](C(=O)N[C@@H](CCC(=O)O)C(=O)N[C@@H](Cc1c[nH]c2ccccc12)C(=O)N[C@@H](CC(C)C)C(=O)N[C@@H](CC(C)C)C(=O)N[C@@H](C)C(=O)N[C@@H](CCC(N)=O)C(=O)N[C@@H](CCCCN)C(=O)N1CCC[C@H]1C(=O)N[C@@H](CO)C(=O)N[C@@H](CO)C(=O)NCC(=O)N[C@@H](C)C(=O)N1CCC[C@H]1C(=O)N1CCC[C@H]1C(=O)N1CCC[C@H]1C(=O)N[C@@H](CO)C(=O)O)C(C)C)[C@@H](C)CC [Compound 2] (Glutaryl-GTFISEYSI[Aib][Nle]EKIK([AEEA-AEEA-γGlu-C18 diacid])QQEFVEWLLAQKPSSGAPPPS-OH)
half life (in words) [5]: long half live

(Pro3)GIP
glucose tolerance [2]: significantly improved glucose tolerance
glycaemic control [2]: restored glycaemic control to normal levels
food intake and body weights [2]: not affected

Reference: US20240277813A1, “TREATMENT OF OBESITY AND OBESITY-RELATED DISORDERS” (ANTAG THERAPEUTICS APS, priority 2021, published 2024)
